Results: article PMC12525867, “Aromaticity Tuning in Biaryl Monophosphines and Their Derivatives” (Molecules, 2025)
In brackets after ≈: the same amount, converted by molar mass.

How the values were obtained:
[1] = Cytotoxicity, microculture tetrazolium (MTT) test, VERO; type: cell-based; conditions: African green monkey, ATCC CCL-81; VERO (normal kidney cells), 24 h incubation, MTT; ± SD
Procedure: (§1) The cytotoxicity of biaryl monophosphines was tested in vitro in normal (VERO) and cancer-derived (H1HeLa) cells after 24 h of incubation using a microculture tetrazolium test. Table 2 presents the CC50 (concentrations decreasing the cellular viability by 50%) values calculated from dose–response cytotoxicity curves (Figure 4).
(§2) Cytotoxicity was evaluated using a microculture tetrazolium test as previously described, and details can be found in the Supplementary Materials. The cell lines used in the presented study were acquired from the American Type Culture Collection (ATCC); the one used for cytotoxicity testing included non-cancerous VERO (kidney; ATCC CCL-81) cells and cancer-originating H1HeLa (cervical adenocarcinoma; ATCC CRL-1958) cells. VERO cells were cultured in Dulbecco’s Modified Eagle’s Medium (DMEM; Corning, Tewksbury, MA, USA), while Eagle’s Minimum Essential Medium (MEM; Corning) was used for H1HeLa. Antibiotics (penicillin–streptomycin solution, Corning) and fetal bovine serum (FBS, Corning) were added to cell media. Cells were incubated in a 5% CO2 atmosphere at 37 °C (CO2 incubator, Panasonic Healthcare Co., Tokyo, Japan). Briefly, the monolayers of VERO or H1HeLa cells in 96-well plates (Falcon, Corning) were treated with serial dilutions of selected compounds for 24 h. After this, the medium was removed, the plates were washed with phosphate buffered saline (PBS; Corning), a 10% solution of (3-(4,5-dimethylthiazol-2-yl)-2,5-diphenyltetrazolium bromide (MTT; Sigma-Aldrich, St. Louis, MO, USA) (5 mg/mL) in FBS-free cell media was added, and the incubation continued for the next 4 h. Subsequently, the precipitated formazan crystals were dissolved, and after overnight incubation at 37 °C, the Synergy H1 Multi-Mode Microplate Reader (BioTek Instruments, Inc., Winooski, VT, USA) with Gen5 software (ver. 3.09.07; BioTek Instruments, Inc.) was used for absorbance acquisition (540 and 620 nm). Data was exported to GraphPad Prism (ver. 10) to calculate the CC50 values (50% cytotoxic concentration) from dose–response curves.
(§3) Aromaticity Tuning in Biaryl Monophosphines and Their Derivatives […]
(§4) Cell line maintenance and in vitro experiments
(§5) The cytotoxicity of selected biaryl monophosphines was evaluated in vitro towards normal VERO (ATCC, CCL-81) cells and cancer-derived cell line H1HeLa (cervical adenocarcinoma; ATCC (American Type Culture Collection) CRL-1958) using 3-(4,5-dimethylthiazol-2-yl)-2,5-diphenylte-trazolium bromide (MTT) based protocol.
(§6) Media used for in vitro culturing included Dulbecco's Modified Eagle's Medium (DMEM, Corning, Tewksbury, MA, USA) used for VERO cells and Modified Eagle Medium (MEM, Corning) used for H1HeLa. Cell media used in the experiments were supplemented with antibiotics (Penicil-lin-Streptomycin Solution, Corning) and fetal bovine serum (FBS, Corning) – 10% (cell passaging) and 2% (cell maintenance and experiments). Phosphate-buffered saline (PBS) and trypsin were bought from Corning, whereas MTT (3-(4,5-dimethylthiazol-2-yl)-2,5-diphenyltetrazolium bromide) from Sigma (Sigma-Aldrich, St. Louis, MO, USA). SDS was purchased from PanReac Applichem (Darmstadt, Germany). Incubation was carried out in a 5% CO2 atmosphere at 37°C (CO2 incubator, Panasonic Healthcare Co., Tokyo, Japan).
(§7) Concentrations of cells for passaging were as follows: VERO – 1.5*10^5 cells/mL, H1HeLa – 2*10^5 cells/mL. Routine observations of cell cultures and experiments were carried out using an in-verted microscope (CKX41, Olympus Corporation, Tokyo, Japan) equipped with a ca mera (Moti-cam 3+, Motic, Hong Kong), and the results were recorded (Motic Images Plus 2.0, Motic).
(§8) Stock solutions of biaryl monophosphines were prepared by dissolving the samples in cell culture grade DMSO (PanReac Applichem).
(§9) Evaluation of cytotoxicity
(§10) Cytotoxicity was tested using an MTT-based protocol. The cells were passaged into 96-well plates (Falcon, TC-treated, Corning) and, after overnight incubation, treated with serial dilutions of […]

VERO cells = assay: as above; type: cell-based; conditions: VERO, 24 h, microscopy
Procedure: as §1, §2, §3, §4, §5, §6, §7, §8, §9, §10

[2] = tested on: S. epidermidis ATCC 12228; assay: Antibacterial screening, broth microdilution (MIC/MBC); type: cell-based, Staphylococcus epidermidis; conditions: for MIC / MBC: Staphylococcus epidermidis, ATCC12228; for MIC: S. epidermidis ATCC 12228, MHB, 24 h, 35 °C, read-out: MIC; for MBC: read-out: MBC
Procedure: (§11) The antimicrobial activities of a series of compounds 1–5 were tested through the utilization of seven reference species, encompassing both Gram-positive (Staphylococcus aureus ATCC 29213, Staphylococcus epidermidis ATCC 12228, Micrococcus luteus ATCC 10240) and Gram-negative (Escherichia coli ATCC 25922, Klebsiella pneumoniae ATCC 13883, Proteus mirabilis ATCC 12453, Acinetobacter baumannii ATCC 19606) bacteria as model microorganisms. For this purpose, microbial suspensions were prepared in sterile saline (0.85% NaCl) with an optical density of 0.5 McFarland standard, yielding a concentration of 150 × 10^6 CFU/mL (CFU, colony-forming units). All of the stock solutions of the tested compounds were dissolved in DMSO. Amoxicillin (Glentham Life Sciences Ltd., Corsham, UK) was used as a positive control.
(§12) The MIC values of the tested compounds were determined by serial twofold dilutions of 1–5 in Mueller Hinton Broth (MHB, Biomaxima, Lublin, Poland). The range of final 1–5 concentrations used was from 0.49 up to 1000 μg/mL, and for amoxicillin from 0.12 up to 250 μg/mL in the 96-well microtiter plates (Medlab, Raszyn, Poland), starting with 98 μL MHB and 2 μL bacterial inoculum added to each well. Positive controls consisted of 100 μL MHB in each well with the tested compounds at the same concentration range. The negative controls consisted of 100 μL of MHB only. Each set of tests and controls was established with three replicates. The microtiter plates were then subjected to an incubation period of 24 h at a temperature of 35 ± 2 °C. After incubation, the optical density of the microbial growth was measured at a wavelength of 600 nm using a microplate reader, the Biotek Elx800 (BioTek Instruments, Inc., Winooski, VT, USA). The MIC value was defined as the lowest concentration of the tested compound at which there was no visible growth of the tested microorganisms. The determination of the MIC values was achieved by employing the broth microdilution method, in accordance with the recommendations of the European Committee on Antimicrobial Susceptibility Testing (EUCAST). […] Then, the MHA plates were incubated overnight at 35 ± 2 °C. […] The MIC and MBC values were reported in μg/mL, according to the EUCAST reference.

E. coli ATCC 25922 = assay: as above; type: cell-based, Escherichia coli; conditions: Escherichia coli, ATCC25922; for MIC: E. coli ATCC 25922, MHB, 24 h, 35 °C, read-out: MIC
Procedure: as §11, §12

P. mirabilis ATCC 12453 = assay: as above; type: cell-based, Proteus mirabilis; conditions: Proteus mirabilis, ATCC12453; P. mirabilis ATCC 12453, MHB, 24 h, 35 °C; read-out: MIC
Procedure: as §11, §12

| MIC [2] | MIC (E. coli ATCC 25922) | MIC (P. mirabilis ATCC 12453) | Compound | CC50 at 24 h [1] | influence on morphology of the cellular monolayer (VERO cells; 12.5 µg/mL) | type of activity (bactericidal or bacteriostatic) ([2]; S. epidermidis ATCC 12228) | MBC ([2]; S. epidermidis ATCC 12228) | influence on morphology of the cellular monolayer (VERO cells; 1.6 µg/mL) | influence on morphology of the cellular monolayer (VERO cells; 3.1 µg/mL) | influence on morphology of the cellular monolayer (VERO cells; 6.3 µg/mL) | MBC (E. coli ATCC 25922; E. coli ATCC 25922) |
| --- | --- | --- | --- | --- | --- | --- | --- | --- | --- | --- | --- |
| 15.6 to 31.2 µg/mL (≈ 27.6 to 55.1 µM) | 500 to 1000 µg/mL (≈ 882 to 1760 µM) | > 1000 µg/mL | COc1cc(OC)c(-c2c(P(=O)(C3CCCCC3)C3CCCCC3)c(OC)c3ccccc3c2OC)c(OC)c1 [Compound 1, Dicyclohexyl[1,4-dimethoxy-3-(2,4,6-trimethoxyphenyl)naphthalen-2-yl]phosphane oxide] | 9.82 ± 0.59 µg/mL | some fibroblast-shaped VERO cells were noticeable | bactericidal | 250 µg/mL (≈ 441 µM) | – | – | – | – |
| 3.91 to 7.89 µg/mL (≈ 7.72 to 15.6 µM) | > 1000 µg/mL | > 1000 µg/mL | COc1ccccc1-c1c(P(=O)(C2CCCCC2)C2CCCCC2)c(OC)c2ccccc2c1OC [Compound 2, Dicyclohexyl[1,4-dimethoxy-3-(2-methoxyphenyl)naphthalen-2-yl]phosphane oxide] | 7.78 ± 0.44 µg/mL | some fibroblast-shaped VERO cells were noticeable | – | > 1000 µg/mL | – | – | – | – |
| 31.2 µg/mL (≈ 56.5 µM) | 250 to 500 µg/mL (≈ 452 to 905 µM) | > 1000 µg/mL | COc1cc(OC)c(-c2c(P(=O)(C3CCCCC3)C3CCCCC3)c(O)c3ccccc3c2OC)c(OC)c1 [Compound 3, 2-(Dicyclohexylphosphoryl)-4-methoxy-3-(2,4,6-trimethoxyphenyl)naphthalen-1-ol] | 3.11 ± 0.14 µg/mL | destroyed the cellular monolayer | – | > 1000 µg/mL | the cellular monolayer resembled the control cells | only a fraction of shrunken cells visible | most of the cells showed cytotoxic damage | > 1000 µg/mL |
